Values of other authors as cited in patent publication US6419959B1, “Galenic composition containing opioid antagonists” (Klinge Pharma GmbH, priority 1996, dated 2002).
Read-outs that look alike come from different tables or passages of the source.

Columns and labels:
[1] = metabolites of naloxone present in the blood
[2] = system: patients with opioid-induced constipation; conditions: oral
patients = conditions: oral
[3] = system: patients with opioid-induced constipation; conditions: oral, maximally administered dose 12 mg

C=CCN1CC[C@]23c4c5ccc(O[C@@H]6O[C@H](C(=O)O)[C@@H](O)[C@H](O)[C@H]6O)c4O[C@H]2C(=O)CC[C@@]3(O)[C@H]1C5 [naloxone-3-glucuronide]
effectiveness of metabolite [1]: not effective or only weakly effective

CN1CC[C@]23c4c5ccc(O)c4O[C@H]2[C@@H](O)C=C[C@H]3[C@H]1C5 [morphine]
patients in whom constipation arises during treatment (patients given morphine): approximately 85%

C=CCN1CC[C@]23c4c5ccc(O[C@@H]6O[C@H](C(=O)O)[C@@H](O)[C@H](O)[C@H]6O)c4O[C@H]2[C@H](O)CC[C@@]3(O)[C@H]1C5 [β-naloxol-3-glucuronide]
effectiveness of metabolite [1]: not effective or only weakly effective

C=CCN1CC[C@]23c4c5ccc(O)c4O[C@H]2C(=O)CC[C@@]3(O)[C@H]1C5 [naloxone]
neutralisation of the constipating effect of loperamide (healthy probands; intravenously applied, 40 μg/kg/hr in 3 hr): could neutralize the constipating effect of loperamide | neutralisation of the constipating effect of loperamide (healthy probands; oral administration of 16 or 32 mg): could neutralize the constipating effect of loperamide | response to the treatment (neutralisation of constipation) ([2]; doses of up to 16 mg, three patients): two of the three patients responded | neutralisation of constipation in the other patient (non-responder) ([2]; increase in dose of up to 24 mg within 3 hours): constipation could not be neutralized | dose-dependent maximal naloxone plasma concentrations ([2]; plasma level determinations): up to 7.9 ng/ml | effect on constipation (patients; up to 10% naloxone dose with respect to the opioid dose): No effect was determinable | effect on constipation (patients; very high dose range 20% to 40% of the opioid dose): neutralization of constipation | effect on the gastrointestinal motility [3]: not determinable in any of the treated patients

C=CCN1CC[C@]23c4c5ccc(O)c4O[C@H]2[C@H](O)CC[C@@]3(O)[C@H]1C5 [β-naloxol]
effectiveness of metabolite [1]: not effective or only weakly effective
